Source: publication PMC3189943, “Catalytic Properties of the Isolated Diaphorase Fragment of the NAD^+-Reducing [NiFe]-Hydrogenase from Ralstonia eutropha” (PLoS ONE, 2011)
Where two headings read alike, the source gives them in different places.

Legend:
[1] = target: T1, HoxFU (diaphorase moiety of the NAD+-reducing soluble [NiFe]-hydrogenase, SH) (Cupriavidus necator, UniProt P22317); assay: protein film electrochemistry, Dixon plot; assay type: biochemical
T1 construct: gene hoxF; HoxFU heterodimer without HoxHY and HoxI; N-terminal Strep-tag II on HoxF kept; plasmid pGE553, homologous overproduction in R. eutropha HF424; Strep-Tactin plus size exclusion; apparent 110 kDa; HoxF 67 kDa, HoxU 27 and 23 kDa (both with original termini, unidentified modification); FMN and Fe-S clusters; with NAD-reducing hydrogenase HoxS subunit gamma

[2] = target: T1, HoxFU (diaphorase moiety of the NAD+-reducing soluble [NiFe]-hydrogenase, SH); assay: protein film electrochemistry, inhibition of NAD+ reduction current; assay type: biochemical; conditions: -412 mV, 0.14 mM NAD+, 50 mM Tris-HCl pH 8.0; enzyme adsorbed on graphite electrode

T1 sequence (P22317 whole entry): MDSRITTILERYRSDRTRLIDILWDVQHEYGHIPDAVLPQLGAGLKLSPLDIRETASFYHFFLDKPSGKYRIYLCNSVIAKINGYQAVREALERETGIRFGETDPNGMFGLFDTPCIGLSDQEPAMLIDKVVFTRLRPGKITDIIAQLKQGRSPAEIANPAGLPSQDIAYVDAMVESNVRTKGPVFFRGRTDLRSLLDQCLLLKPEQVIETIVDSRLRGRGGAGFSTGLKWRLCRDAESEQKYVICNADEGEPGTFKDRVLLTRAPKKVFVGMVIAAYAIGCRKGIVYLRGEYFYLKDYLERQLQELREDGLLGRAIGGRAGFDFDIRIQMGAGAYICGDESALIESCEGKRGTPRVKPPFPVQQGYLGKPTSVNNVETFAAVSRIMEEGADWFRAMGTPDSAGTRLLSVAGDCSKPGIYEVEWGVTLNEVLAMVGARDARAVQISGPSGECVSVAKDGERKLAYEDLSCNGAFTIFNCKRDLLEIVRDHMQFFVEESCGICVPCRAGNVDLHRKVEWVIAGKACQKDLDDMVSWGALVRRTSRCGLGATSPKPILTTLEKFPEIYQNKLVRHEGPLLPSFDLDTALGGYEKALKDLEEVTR
T1 sequence (P22318 2-234 partner): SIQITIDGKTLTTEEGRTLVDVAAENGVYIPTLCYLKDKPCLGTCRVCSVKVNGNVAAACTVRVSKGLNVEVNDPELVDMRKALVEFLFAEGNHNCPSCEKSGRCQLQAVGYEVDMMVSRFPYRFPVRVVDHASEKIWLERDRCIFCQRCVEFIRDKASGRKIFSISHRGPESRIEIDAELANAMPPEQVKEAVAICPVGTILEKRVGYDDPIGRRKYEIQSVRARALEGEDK

Work on `NC(=O)C1=CN([C@@H]2O[C@H](COP(=O)(O)OP(=O)(O)OC[C@H]3O[C@@H](n4cnc5c(N)ncnc54)[C@H](O)[C@@H]3O)[C@@H](O)[C@H]2O)C=CC1` [NADH] yielded a Ki ([1]; read-out: K I(NADH)) of 200 to 300 µM.
For `NC(=O)c1ccc[n+]([C@@H]2O[C@H](COP(=O)(O)OP(=O)(O)OC[C@H]3O[C@@H](n4cnc5c(N)ncnc54)[C@H](O)[C@@H]3O)[C@@H](O)[C@H]2O)c1` [NAD^+], the Ki ([1]; read-out: K I(NAD+)) was 100 to 300 µM.
`Nc1ncnc2c1ncn2[C@@H]1O[C@H](COP(=O)(O)OP(=O)(O)OC[C@H]2OC(O)[C@H](O)[C@@H]2O)[C@@H](O)[C@H]1O` (stereo partly drawn) [ADP-ribose] was tested, and the “protein film electrochemistry, inhibition of NAD+ reduction current” value [2] was “effect of injections of ADP-ribose on NAD^+ reduction by HoxFU, confirming that ADP-ribose is an inhibitor”.
